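Assay format: 96-well plates, 48-hour exposure. GI50 is the concentration that inhibits growth by half.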 Calls of active or inactive are those of the source. No stated cut-off is given here; in the data, active = GI50 up to about 1.1 µM and inactive = higher.
What was measured:
Experiment in all cases: DTP human tumour cell line panel, 48 h
RPMI-8226 = system: RPMI-8226
HOP-62 = system: HOP-62
NCI-H23 = system: NCI-H23
RXF 393 = system: RXF 393
HCT-116 = system: HCT-116
HCC 2998 = system: HCC 2998
K562 = system: K562
DLD-1 = system: DLD-1
MCF7 = system: MCF7
HOP-18 = system: HOP-18
XF498 = system: XF498
UACC-257 = system: UACC-257
CCRF-CEM = system: CCRF-CEM
OVCAR-3 = system: OVCAR-3
EKVX = system: EKVX
SK-MEL-2 = system: SK-MEL-2
SNB-75 = system: SNB-75
SN12C = system: SN12C
HT-29 = system: HT-29
A549 = system: A549
UO-31 = system: UO-31
OVCAR-4 = system: OVCAR-4
M19-MEL = system: M19-MEL
SF-295 = system: SF-295
SK-MEL-5 = system: SK-MEL-5
NCI-H522 = system: NCI-H522
HL-60 = system: HL-60
SF-268 = system: SF-268
NCI-H226 = system: NCI-H226
KM-20L2 = system: KM-20L2
NCI-H460 = system: NCI-H460
SK-OV-3 = system: SK-OV-3
DMS-114 = system: DMS-114
SF-539 = system: SF-539
SNB-78 = system: SNB-78
COLO 205 = system: COLO 205
OVCAR-5 = system: OVCAR-5
A498 = system: A498
HOP-92 = system: HOP-92
NCI/ADR-RES = system: NCI/ADR-RES
CAKI-1 = system: CAKI-1
SK-MEL-28 = system: SK-MEL-28
SW-620 = system: SW-620
SNB-19 = system: SNB-19
UACC-62 = system: UACC-62
DMS-273 = system: DMS-273
HCT-15 = system: HCT-15
KM12 = system: KM12
IGROV-1 = system: IGROV-1
OVCAR-8 = system: OVCAR-8
LOX IMVI = system: LOX IMVI
Malme-3M = system: Malme-3M
MOLT-4 = system: MOLT-4
U-251 = system: U-251
M14 = system: M14
ACHN = system: ACHN
TK-10 = system: TK-10
786-0 = system: 786-0
LXFL 529 = system: LXFL 529

O=C(NC(Cc1ccc(I)cc1)C(=O)O)c1ccc(Br)cc1 (stereo not drawn)
GI50 (RPMI-8226): 46.9 µM (inactive) | GI50 (HOP-62): > 100 µM (inactive) | GI50 (NCI-H23): > 100 µM (inactive) | GI50 (RXF 393): > 100 µM (inactive) | GI50 (HCT-116): > 100 µM (inactive) | GI50 (HCC 2998): 25.9 µM (inactive) | GI50 (K562): > 73.1 µM (inactive) | GI50 (DLD-1): > 100 µM (inactive) | GI50 (MCF7): > 60.4 µM (inactive) | GI50 (HOP-18): > 100 µM (inactive) | GI50 (XF498): > 77.6 µM (inactive) | GI50 (UACC-257): > 100 µM (inactive) | GI50 (CCRF-CEM): > 66.2 µM (inactive) | GI50 (OVCAR-3): 89.7 µM (inactive) | GI50 (EKVX): 17.2 µM (inactive) | GI50 (SK-MEL-2): > 100 µM (inactive) | GI50 (SNB-75): 30.1 µM (inactive) | GI50 (SN12C): > 100 µM (inactive) | GI50 (HT-29): > 100 µM (inactive) | GI50 (A549): > 100 µM (inactive) | GI50 (UO-31): > 100 µM (inactive) | GI50 (OVCAR-4): > 85.5 µM (inactive) | GI50 (M19-MEL): > 82.2 µM (inactive) | GI50 (SF-295): > 100 µM (inactive) | GI50 (SK-MEL-5): > 67.1 µM (inactive) | GI50 (NCI-H522): 64.9 µM (inactive) | GI50 (HL-60): > 100 µM (inactive) | GI50 (SF-268): > 100 µM (inactive) | GI50 (NCI-H226): > 100 µM (inactive) | GI50 (KM-20L2): > 100 µM (inactive) | GI50 (NCI-H460): 98.6 µM (inactive) | GI50 (SK-OV-3): > 100 µM (inactive) | GI50 (DMS-114): 66.2 µM (inactive) | GI50 (SF-539): > 100 µM (inactive) | GI50 (SNB-78): > 100 µM (inactive) | GI50 (COLO 205): > 100 µM (inactive) | GI50 (OVCAR-5): > 100 µM (inactive) | GI50 (A498): > 100 µM (inactive) | GI50 (HOP-92): 76.7 µM (inactive) | GI50 (NCI/ADR-RES): > 100 µM (inactive) | GI50 (CAKI-1): > 100 µM (inactive) | GI50 (SK-MEL-28): > 100 µM (inactive) | GI50 (SW-620): > 100 µM (inactive) | GI50 (SNB-19): > 86.7 µM (inactive) | GI50 (UACC-62): > 67.3 µM (inactive) | GI50 (DMS-273): > 100 µM (inactive) | GI50 (HCT-15): > 100 µM | GI50 (KM12): > 100 µM (inactive) | GI50 (IGROV-1): > 100 µM (inactive) | GI50 (OVCAR-8): > 100 µM (inactive) | GI50 (LOX IMVI): > 100 µM (inactive) | GI50 (Malme-3M): 80.9 µM (inactive) | GI50 (MOLT-4): > 72.9 µM (inactive) | GI50 (U-251): 65.8 µM (inactive)

CCCCCCCCCc1cc(=O)c2ccc(OCc3ccccc3)cc2o1
GI50 (M14): > 100 µM (inactive) | GI50 (HOP-62): > 100 µM (inactive) | GI50 (NCI-H23): > 100 µM (inactive) | GI50 (RXF 393): 96.2 µM (inactive) | GI50 (HCT-116): 71.3 µM (inactive) | GI50 (HCC 2998): > 100 µM (inactive) | GI50 (K562): > 100 µM (inactive) | GI50 (DLD-1): > 100 µM (inactive) | GI50 (HOP-18): > 100 µM (inactive) | GI50 (XF498): > 100 µM (inactive) | GI50 (UACC-257): > 100 µM (inactive) | GI50 (CCRF-CEM): 65.2 µM (inactive) | GI50 (OVCAR-3): > 100 µM (inactive) | GI50 (EKVX): > 100 µM (inactive) | GI50 (SK-MEL-2): 43.1 µM (inactive) | GI50 (SNB-75): 30.8 µM (inactive) | GI50 (SN12C): > 100 µM (inactive) | GI50 (HT-29): > 100 µM (inactive) | GI50 (A549): 70.8 µM (inactive) | GI50 (UO-31): > 100 µM (inactive) | GI50 (OVCAR-4): 83.2 µM (inactive) | GI50 (M19-MEL): 69.7 µM (inactive) | GI50 (ACHN): > 100 µM (inactive) | GI50 (SF-295): > 100 µM (inactive) | GI50 (SK-MEL-5): 97.9 µM (inactive) | GI50 (NCI-H522): > 100 µM (inactive) | GI50 (HL-60): 14.5 µM (inactive) | GI50 (SF-268): > 100 µM (inactive) | GI50 (NCI-H226): 34.7 µM (inactive) | GI50 (KM-20L2): > 100 µM (inactive) | GI50 (NCI-H460): 64.4 µM (inactive) | GI50 (TK-10): 65.5 µM (inactive) | GI50 (SK-OV-3): > 100 µM (inactive) | GI50 (DMS-114): 92.9 µM (inactive) | GI50 (SF-539): 90.8 µM (inactive) | GI50 (SNB-78): > 100 µM (inactive) | GI50 (COLO 205): > 100 µM (inactive) | GI50 (OVCAR-5): > 100 µM (inactive) | GI50 (HOP-92): > 100 µM (inactive) | GI50 (CAKI-1): 2.92 µM (inactive) | GI50 (786-0): > 100 µM (inactive) | GI50 (SK-MEL-28): > 100 µM (inactive) | GI50 (SW-620): > 100 µM (inactive) | GI50 (SNB-19): > 100 µM (inactive) | GI50 (UACC-62): > 100 µM (inactive) | GI50 (DMS-273): > 100 µM (inactive) | GI50 (LXFL 529): 73.8 µM (inactive) | GI50 (HCT-15): > 100 µM | GI50 (KM12): > 100 µM (inactive) | GI50 (IGROV-1): > 100 µM (inactive) | GI50 (OVCAR-8): > 100 µM (inactive) | GI50 (LOX IMVI): > 100 µM (inactive) | GI50 (Malme-3M): 25.8 µM (inactive) | GI50 (U-251): > 100 µM (inactive)
